Numbers after ± are expanded uncertainties.
Experiment: xn = mol fraction of the nth substance listed
Conditions: Liquid, Vibrating tube method

CCCC [butane] + CCC
Conditions | mass density [kg/m3]
260 K, 6015.4 kPa, x2 = 0.5 | 592.29 ± 0.33
260 K, 6034.1 kPa, x2 = 0.25 | 607.43 ± 0.32
260 K, 6049.2 kPa, x2 = 0.75 | 574.41 ± 0.34
260 K, 6498.8 kPa, x2 = 0.75 | 575.04 ± 0.34
260 K, 6503.8 kPa, x2 = 0.25 | 607.98 ± 0.33
260 K, 6512.1 kPa, x2 = 0.5 | 592.9 ± 0.33
260 K, 6943 kPa, x2 = 0.75 | 575.6 ± 0.35
260 K, 6986.6 kPa, x2 = 0.5 | 593.49 ± 0.34
260 K, 7011.2 kPa, x2 = 0.25 | 608.56 ± 0.33
280 K, 524.1 kPa, x2 = 0.25 | 578.3 ± 0.27
280 K, 533.2 kPa, x2 = 0.5 | 561.24 ± 0.28
280 K, 994.1 kPa, x2 = 0.25 | 579.05 ± 0.28
280 K, 996.1 kPa, x2 = 0.5 | 562.05 ± 0.28
280 K, 1496.7 kPa, x2 = 0.25 | 579.83 ± 0.28
280 K, 1503.2 kPa, x2 = 0.5 | 562.93 ± 0.29
280 K, 1506.3 kPa, x2 = 0.75 | 543.19 ± 0.29
280 K, 2004.1 kPa, x2 = 0.5 | 563.79 ± 0.29
280 K, 2012.9 kPa, x2 = 0.75 | 544.18 ± 0.3
280 K, 2015.5 kPa, x2 = 0.25 | 580.63 ± 0.29
280 K, 2501.9 kPa, x2 = 0.5 | 564.62 ± 0.3
280 K, 2503.9 kPa, x2 = 0.25 | 581.38 ± 0.29
280 K, 2509.6 kPa, x2 = 0.75 | 545.11 ± 0.31
280 K, 3000.3 kPa, x2 = 0.25 | 582.13 ± 0.3
280 K, 3006.4 kPa, x2 = 0.5 | 565.46 ± 0.31
280 K, 3018.4 kPa, x2 = 0.75 | 546.06 ± 0.31
280 K, 3502.3 kPa, x2 = 0.25 | 582.88 ± 0.3
280 K, 3504.2 kPa, x2 = 0.5 | 566.28 ± 0.31
280 K, 3513.7 kPa, x2 = 0.75 | 546.96 ± 0.32
280 K, 4015 kPa, x2 = 0.25 | 583.63 ± 0.31
280 K, 4015 kPa, x2 = 0.75 | 547.86 ± 0.32
280 K, 4016.7 kPa, x2 = 0.5 | 567.11 ± 0.32
280 K, 4505.3 kPa, x2 = 0.25 | 584.35 ± 0.31
280 K, 4508.2 kPa, x2 = 0.75 | 548.75 ± 0.33
280 K, 4524.6 kPa, x2 = 0.5 | 567.93 ± 0.32
280 K, 4984.9 kPa, x2 = 0.75 | 549.59 ± 0.33
280 K, 4998.7 kPa, x2 = 0.5 | 568.69 ± 0.33
280 K, 5019.7 kPa, x2 = 0.25 | 585.09 ± 0.32
280 K, 5502.7 kPa, x2 = 0.25 | 585.78 ± 0.32
280 K, 5506.3 kPa, x2 = 0.5 | 569.47 ± 0.33
280 K, 5508.8 kPa, x2 = 0.75 | 550.5 ± 0.34
280 K, 6005.9 kPa, x2 = 0.25 | 586.49 ± 0.33
280 K, 6009.4 kPa, x2 = 0.5 | 570.25 ± 0.34
280 K, 6043.7 kPa, x2 = 0.75 | 551.39 ± 0.35
280 K, 6507.4 kPa, x2 = 0.5 | 571.01 ± 0.34
280 K, 6517.1 kPa, x2 = 0.25 | 587.21 ± 0.34
280 K, 6530.4 kPa, x2 = 0.75 | 552.22 ± 0.35
280 K, 6972.3 kPa, x2 = 0.5 | 571.72 ± 0.35
280 K, 7009.3 kPa, x2 = 0.25 | 587.89 ± 0.34
280 K, 7012.2 kPa, x2 = 0.75 | 553.04 ± 0.36
300 K, 990 kPa, x2 = 0.5 | 536.26 ± 0.29
300 K, 1002.3 kPa, x2 = 0.75 | 514.75 ± 0.3
300 K, 1005.5 kPa, x2 = 0.25 | 555.26 ± 0.28
300 K, 1504.4 kPa, x2 = 0.25 | 556.28 ± 0.29
300 K, 1504.7 kPa, x2 = 0.75 | 516.09 ± 0.3
300 K, 1541.4 kPa, x2 = 0.5 | 537.52 ± 0.3
300 K, 1950.9 kPa, x2 = 0.5 | 538.44 ± 0.3
300 K, 1972.1 kPa, x2 = 0.75 | 517.33 ± 0.31
300 K, 2002.5 kPa, x2 = 0.25 | 557.25 ± 0.3
300 K, 2461.4 kPa, x2 = 0.5 | 539.56 ± 0.31
300 K, 2497.9 kPa, x2 = 0.25 | 558.21 ± 0.3
300 K, 2507.7 kPa, x2 = 0.75 | 518.69 ± 0.31
300 K, 2946.2 kPa, x2 = 0.5 | 540.6 ± 0.31
300 K, 3009.2 kPa, x2 = 0.75 | 519.95 ± 0.32
300 K, 3012.5 kPa, x2 = 0.25 | 559.2 ± 0.31
300 K, 3505.6 kPa, x2 = 0.5 | 541.79 ± 0.32
300 K, 3507.9 kPa, x2 = 0.25 | 560.13 ± 0.31
300 K, 3511.5 kPa, x2 = 0.75 | 521.18 ± 0.33
300 K, 3998.7 kPa, x2 = 0.25 | 561.02 ± 0.32
300 K, 4015.9 kPa, x2 = 0.5 | 542.85 ± 0.33
300 K, 4017.5 kPa, x2 = 0.75 | 522.39 ± 0.33
300 K, 4511.3 kPa, x2 = 0.25 | 561.97 ± 0.32

mass density [kg/m3]
Conditions | x2 = 0.25 | x2 = 0.5 | x2 = 0.75
260 K | 600.21 ± 0.26 | 584.58 ± 0.27 | 566.05 ± 0.27
280 K | 577.86 ± 0.27 | 560.91 ± 0.27 | 541.14 ± 0.28

— the NIST ThermoML archive (doi:10.1021/je049671t)
